Reference: ChEMBL document CHEMBL1687857, “Stereumins H-J, stereumane-type sesquiterpenes from the fungus Stereum sp” (J Nat Prod, 2011)
Activity calls are given as the source filed them.

How the values were obtained:
[1] = test system: SMMC-7721; assay: Cytotoxicity against human SMMC7721 cells at 40 uM by MTT assay; assay type: functional, cell-based
[2] = test system: Candida albicans; assay: Antimicrobial activity against Candida albicans at 50 ug/ml by disk diffusion method; assay type: functional, organism-based
[3] = test system: Escherichia coli; assay: Antimicrobial activity against Escherichia coli at 50 ug/ml by disk diffusion method; assay type: functional, organism-based
[4] = test system: Staphylococcus aureus; assay: Antimicrobial activity against Staphylococcus aureus at 50 ug/ml by disk diffusion method; assay type: functional, organism-based
[5] = test system: A549; assay: Cytotoxicity against human A549 cells at 40 uM by MTT assay; assay type: functional, cell-based
[6] = test system: HL-60; assay: Cytotoxicity against human HL60 cells at 40 uM by MTT assay; assay type: functional, cell-based
[7] = test system: Panagrellus redivivus; assay: Antinematodal activity against Panagrellus redivivus at 100 ug/ml by disk diffusion method; assay type: functional, organism-based

C=C1[C@H](O)[C@@H]2[C@H]3[C@H](CC[C@]2(C)O)[C@@H](C)C[C@H](O)[C@@]13O
inactive: Activity [1] | inhibition [2] | inhibition [3] | inhibition [4] | Activity [5] | Activity [6] | Activity [7]

C=C1[C@H](O)[C@@H]2[C@H]3[C@H](CC[C@]2(C)O)[C@@H](C)CC(=O)[C@@]13O
inactive: Activity [1] | inhibition [2] | inhibition [3] | inhibition [4] | Activity [5] | Activity [6] | Activity [7]

C=C1[C@@H](O)[C@@H]2[C@H]3[C@H](CC[C@@]2(C)O)[C@@H](C)CC(=O)[C@@]13O
inactive: Activity [1] | inhibition [2] | inhibition [3] | inhibition [4] | Activity [5] | Activity [6] | Activity [7]
